From PubChem BioAssay AID504864 (NMMLSC, 2011) come the findings set out here.

The structures appear in SMILES notation. Calls of active or inactive are those of the source.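 Rule for the calls: active = normalized viability below 40% relative to DMSO and staurosporine controls, called cytotoxic; inactive = the rest.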

A word on the viability: it is a read-out of living cells in per cent, often relative to untreated cells.

The test system of this test is ConA-stimulated mouse T cells viability, FDA flow cytometry, 24 h. As to the kind of experiment: viability of concanavalin A-activated mouse T cells – cell-based, concanavalin A stimulation, cytotoxicity control for T cell immune modulator project (AID 504864). The following applies: at 20 µM; stronger effect = lower value.

As for `NC(=O)C1CCN(c2nc(-c3cc4ccccc4o3)cs2)CC1`, the viability was 88.8% (inactive).
For `CN(C)S(=O)(=O)c1ccc(C(=O)NCCc2ccco2)cc1`, the viability is 91.8% (inactive).
`CCOC(=O)c1ccc(S(=O)(=O)N2CCN(C3CCCC3)CC2)cc1`: the viability was 90.7% (inactive).
To `O=C(CCC(=O)N1CCOCC1)NCc1cccc(C(F)(F)F)c1` belongs 98% (inactive); to `CC(C)(C)NC(=O)COc1ccc(CNCc2cccnc2)cc1`, 91.1% (inactive); to `Cc1ccc(O)c(CCc2ccccc2)n1`, 96.7% (inactive).
Consider `COc1ccccc1CNC(=O)COc1ccc(C)cc1`, for which the viability is 98.7% (inactive).
To `CCN(CC)CCNC(=O)CCCNC(=O)Cn1cnc2sc(C)c(C)c2c1=O` belongs 98.7% (inactive); to `CCOc1ccc(CCNC(=O)CCS(=O)(=O)c2ccc(C)cc2)cc1OCC`, 85.5% (inactive); to `COc1ccc(NC(=O)CSCC(=O)Nc2cccc(S(=O)(=O)N3CCCCCC3)c2)cc1`, 86.6% (inactive).
Consider `O=C(COC(=O)C12CC3CC(CC(Br)(C3)C1)C2)Nc1cccc(S(=O)(=O)N2CCOCC2)c1`, for which the viability is 96.9% (inactive).
To `CN(C)S(=O)(=O)c1cccc(-n2sc3ccccc3c2=O)c1` belongs 12.1%; to `O=C(NCc1cccnc1)C(=O)NCC(c1ccco1)N1CCN(c2ccccc2)CC1` (stereo not drawn), 101% (inactive).
To `Cc1ccc(C(=O)NCCCN2CCOCC2)c(C)c1` belongs 96.3% (inactive); to `CC(Sc1nc2ccccc2[nH]1)C(=O)NC1CCCCC1C` (stereo not drawn), 101% (inactive); to `Cc1sc2ncnc(NCC(C)(C)N3CCOCC3)c2c1C`, 101% (inactive).
To `COc1ccc(Nc2ccccc2N)cc1` belongs 21.9%.
Consider `CC1CCCCC1NC(=O)COC(=O)c1ccc2ncsc2c1` (stereo not drawn), for which the viability was 90.9% (inactive).
For `CCCNC(=O)c1nc2ncc(Br)cn2n1`, the viability is 101% (inactive).
The result for `COc1ccc(C(O)c2coc3ccc(O)c(CN(C)C)c23)cc1` (stereo not drawn) reads 88% (inactive); that for `O=C1CC(c2nc3ccccc3[nH]2)CN1Cc1ccccc1` (stereo not drawn), 110% (inactive); that for `COc1ccc(C2=Nc3cc(C)ccc3OC2)cc1`, 94.5% (inactive).
The result for `CN1CCN(S(=O)(=O)c2cccc(C(=O)Nc3cc(C(F)(F)F)ccc3N3CCCCC3)c2)CC1` reads 56.9% (inactive); that for `CN(CC(=O)Nc1cc(S(=O)(=O)N2CCCC2)ccc1Cl)Cc1ccc2c(c1)OCO2`, 78.3% (inactive); that for `CCN(CC)C(=O)N1CCN(S(=O)(=O)c2ccc(C)cc2)CC1`, 105% (inactive).
To `Cc1ccc(S(=O)(=O)N2CCN(C(=O)CNC(=O)c3ccc(Cl)cc3)CC2)cc1` belongs 33.2%.
For `CCC1(C)NC(=O)N(CC(=O)N2N=C(c3ccccc3)CC2c2ccc(OC)cc2)C1=O` (stereo not drawn), the viability was 93.6% (inactive).
In the case of `Cc1ccc(Cn2c([N+](=O)[O-])cnc2C)cc1`, the viability was 110% (inactive).
To `CCOC(=O)c1c(C=O)c2ccccc2n1CC` belongs 91.6% (inactive); to `Cc1ccc(S(=O)(=O)N2CCN(S(=O)(=O)N(C)C)CC2)c(C)c1`, 84.8% (inactive); to `CC(=O)c1ccc(-c2csc(N3CCC(C(N)=O)CC3)n2)cc1`, 91.6% (inactive).
The result for `Cc1ccccc1C(=O)NCC(=O)N1CCN(C/C=C/c2ccccc2)CC1` reads 100% (inactive).
The result for `O=C(CC1=NCCNC(c2ccccc2)C1)c1ccccc1O` (stereo not drawn) reads 75% (inactive).
As for `COc1ccc([N+](=O)[O-])cc1NC(=O)c1ccc(N(Cc2ccccc2C)S(C)(=O)=O)cc1`, the viability was 90.9% (inactive).
To `CCOC(=O)N1CCN(C(=O)c2ccc(CS(=O)Cc3ccc(C)cc3)o2)CC1` (stereo not drawn) belongs 98.2% (inactive).
The result for `O=C(NCCN1CCN(c2ccccc2)CC1)c1cccc(Br)c1` reads 86.2% (inactive); that for `Cn1c(CNC(=O)CNC(=O)c2ccc(F)cc2)cc(=O)n(C)c1=O`, 96.3% (inactive).
The result for `COc1ccc(/C=C2\SC(=S)N(CCC(=O)N3CCOCC3)C2=O)cc1` reads 78.4% (inactive).
`O=C(OCCOc1cccc(Cl)c1)c1ccc(F)c(S(=O)(=O)N2CCOCC2)c1`: the viability is 85% (inactive).
Take `COc1ccc(N2CC(C(=O)NC(C)C(=O)NCc3ccccc3OC)CC2=O)cc1` (stereo not drawn): the viability is 88.2% (inactive).
To `Cc1ccc(OCCOC(=O)c2cc(S(=O)(=O)N3CCCCC3)ccc2N2CCOCC2)cc1` belongs 48.6% (inactive).
The result for `CCCc1nnc(NC(=O)c2ccc(S(=O)(=O)N(C)c3ccccc3OC)cc2)s1` reads 89.7% (inactive); that for `c1ccc(COc2ccc(OCCN3CCCCC3)cc2)cc1`, 112% (inactive); that for `O=C(NCCC1=CCCCC1)C(=O)NCC(c1ccco1)N1CCN(c2ccccc2F)CC1` (stereo not drawn), 73.6% (inactive).
The result for `COC(=O)c1ccccc1NC(=O)C1CCN(C(=O)c2cc(OC)cc(OC)c2)CC1` reads 103% (inactive).
Turning to `O=C(O)C1CCC(Cn2c(SCc3cc(=O)n4cc(Cl)ccc4n3)nc3ccsc3c2=O)CC1` (stereo not drawn), the viability was 71.6% (inactive).
Take `O=C(CS(=O)(=O)Cc1ccccc1)N1CCc2ccccc21`: the viability was 106% (inactive).
As for `CCOC(=O)c1c(N2C(=O)CC(Sc3ccccc3C(=O)O)C2=O)sc2c1CCCC2` (stereo not drawn), the viability was 94.2% (inactive).
The result for `CCOCC(=O)Nc1ccc(S(=O)(=O)N2CCC(c3nc4ccccc4[nH]3)CC2)cc1` reads 94% (inactive).
Regarding `CCN(CC)S(=O)(=O)c1ccc(Cl)c(NC(=O)COC(=O)C2CCCCC2)c1`, the viability is 106% (inactive).
The result for `CC(=O)Nc1ccc(S(=O)(=O)NC2CCSc3ccccc32)cc1` (stereo not drawn) reads 98.5% (inactive); that for `Cc1ccccc1C(=O)N1CCC(C(=O)Nc2ccc(C)c(S(=O)(=O)N3CCCCC3)c2)CC1`, 82.2% (inactive).
The result for `CCOc1ccc(-c2nc(N)ncc2-c2ccccc2)c(O)c1` reads 83.1% (inactive); that for `CCC(C(=O)Nc1ccccc1)c1ccccc1` (stereo not drawn), 104% (inactive); that for `Cc1cc(C)n(C(=O)c2sc3cc(F)ccc3c2Cl)n1`, 87.8% (inactive).
To `COCCCN1CCc2[nH]c(=S)[nH]c(=O)c2C1` belongs 95.4% (inactive); to `O=C(c1ccc(N2C(=O)C3CC=C(Cl)CC3C2=O)cc1)N1CCCCC1` (stereo not drawn), 6.85%; to `COc1ccccc1NS(=O)(=O)c1cc(NC(=O)CNC(=O)c2cc(C)cc(C)c2)ccc1C`, 111% (inactive).
Turning to `CCCCOc1ccc(C(=O)NCC(=O)N2CCN(C(=O)c3ccco3)CC2)cc1`, the viability was 85.5% (inactive).
To `COCc1c(C(=O)Nc2cccc(S(=O)(=O)N3CCCCC3)c2)oc2ccccc12` belongs 58.7% (inactive); to `COc1ccc(CNC(=O)c2cccnc2SC)cc1OC`, 75.5% (inactive).
The result for `CCOC(=O)C1CCCN(S(=O)(=O)c2ccc(F)c(C(=O)Nc3ccc(F)c(F)c3)c2)C1` (stereo not drawn) reads 74.5% (inactive); that for `COc1cccc(NC(=O)Nc2ccc3nc(C)c(C)nc3c2)c1`, 100% (inactive).
To `Cc1ncc([N+](=O)[O-])n1Cc1cccc(F)c1` belongs 116% (inactive).
For the molecule `CCOC(=O)c1ccc(NC(=O)CN2C(=O)NC3(CCCCCCC3)C2=O)cc1`, the viability was 91.1% (inactive).
To `COc1ccc(NC(=O)CC2C(=O)N(Cc3ccccc3)C(=S)N2CCN2CCOCC2)cc1` (stereo not drawn) belongs 100% (inactive).
To `COc1ccc(S(=O)(=O)N2CCCCC2)cc1NC(=O)c1cnc(C)cn1` belongs 102% (inactive); to `Cc1cccc(NC(=O)C2CCN(S(=O)(=O)c3c(C)[nH]c(=O)[nH]c3=O)CC2)c1`, 96% (inactive).
To `O=C(NNS(=O)(=O)c1ccc2ccccc2c1)c1cccs1` belongs 100% (inactive); to `O=C(NCC1CCCCC1)c1ccc(Cl)c(S(=O)(=O)N2CCOCC2)c1`, 78.3% (inactive); to `Cc1cc(Cl)c(OCCCSc2nc(C)cc(=O)[nH]2)c(Br)c1`, 103% (inactive).
In the case of `Cc1ccc(N2CC(C(=O)NC3=NCCS3)CC2=O)cc1` (stereo not drawn), the viability was 93.6% (inactive).
To `CCCCn1nc(C(=O)N2CCN(S(=O)(=O)c3ccccc3)CC2)c2ccccc2c1=O` belongs 98.2% (inactive).
The result for `Cc1ccc(NC(=O)COC(=O)CCc2c[nH]c3ccccc23)c(C)c1` reads 97.2% (inactive); that for `CN1CCN(S(=O)(=O)c2ccc(C(=O)Nc3ccccc3)cc2)CC1`, 93.5% (inactive); that for `O=C(Cn1cc(C(F)(F)F)cc(Cl)c1=O)NCCc1ccc(Cl)cc1Cl`, 102% (inactive).
Consider `Cc1cc(=O)oc2c3c(cc(OCC(=O)NCc4ccncc4)c12)OC(C)(C)CC3`, for which the viability was 106% (inactive).
Take `COc1ccc(S(=O)(=O)N2CCCC2C(=O)Nc2ccc(C(C)=O)cc2)cc1` (stereo not drawn): the viability was 94.9% (inactive).
